What was measured:
Assay type in all cases: in vivo
[1] = tested on: Euschistus heros (Neotropical Brown Stink Bug); assay: Example B2: Euschistus heros, soybean leaves sprayed, N2 nymphs; conditions: 120 h, application rate of 200 ppm, 5 days after infestation, in comparison to untreated samples, read-out: effect in at least one of the two categories (mortality or growth inhibition)
Procedure: Example B2: Euschistus heros (Neotropical Brown Stink Bug)
Soybean leaves on agar in 24-well microtiter plates were sprayed with aqueous test solutions prepared from 10′000 ppm DMSO stock solutions. After drying the leaves were infested with N2 nymphs. The samples were assessed for mortality and growth inhibition in comparison to untreated samples 5 days after infestation.
The following compounds gave an effect of at least 80% in at least one of the two categories (mortality or growth inhibition) at an application rate of 200 ppm: • P1, P2, P3, P7, P11, P12, P16, P17, P18, P22, P25, P29, P32, P33, P37, P38

[2] = tested on: Frankliniella occidentalis (Western Flower Thrips); assay: Example B3: Frankliniella occidentalis feeding/contact activity, sunflower leaf discs; conditions: foliar, 168 h, application rate of 200 ppm, population of mixed ages, 7 days after infestation
Procedure: Example B3: Frankliniella occidentalis (Western Flower Thrips):Feeding/Contact Activity
Sunflower leaf discs were placed on agar in 24-well microtiter plates and sprayed with aqueous test solutions prepared from […] stock solutions. After drying the leaf discs were infested with a Frankliniella population of mixed ages. The samples were assessed for mortality 7 days after infestation.

[3] = tested on: Chilo suppressalis (Striped Rice Stemborer); assay: Example B4: Chilo suppressalis, artificial diet, L2 larvae; conditions: 144 h, application rate of 200 ppm, 6 days after infestation, in comparison to untreated samples, read-out: control in at least one of the categories (mortality, anti-feedant effect, or growth inhibition)
Procedure: Example B4: Chilo suppressalis (Striped Rice Stemborer)
24-well microtiter plates with artificial diet were treated with aqueous test solutions prepared from 10′000 ppm DMSO stock solutions by pipetting. After drying, the plates were infested with L2 larvae (6-8 per well). The samples were assessed for mortality, anti-feeding effect, and growth inhibition in comparison to untreated samples 6 days after infestation. Control of Chilo suppressalis by a test sample is given when at least one of the categories mortality, anti-feedant effect, and growth inhibition is higher than the untreated sample.

[4] = tested on: Plutella xylostella (Diamond Back Moth); assay: Example B5: Plutella xylostella, artificial diet in 24-well plates, eggs; conditions: 192 h, application rate of 200 ppm, 8 days after infestation, in comparison to untreated samples, read-out: effect in at least one of the two categories (mortality or growth inhibition)
Procedure: Example B5: Plutella xylostella (Diamond Back Moth)
24-well microtiter plates with artificial diet were treated with aqueous test solutions prepared from 10′000 ppm DMSO stock solutions by pipetting. After drying, Plutella eggs were pipetted through a plastic stencil onto a gel blotting paper and the plate was closed with it. The samples were assessed for mortality and growth inhibition in comparison to untreated samples 8 days after infestation.
The following compounds gave an effect of at least 80% in at least one of the two categories (mortality or growth inhibition) at an application rate of 200 ppm: • P1, P2, P3, P4, P5, P7, P8, P9, P14, P15, P16, P17, P18, P21, P22, P23, P24, P25, P27, P28, P29, P30, P31, P32, P33, P34, P35, P36

[5] = tested on: Myzus persicae (Green Peach Aphid); assay: Example B6: Myzus persicae feeding/contact activity, sunflower leaf discs; conditions: foliar, 144 h, application rate of 200 ppm, aphid population of mixed ages, 6 days after infestation
Procedure: Example B6: Myzus persicae (Green Peach Aphid): Feeding/Contact Activity
Sunflower leaf discs were placed onto agar in a 24-well microtiter plate and sprayed with aqueous test solutions prepared from 10′000 ppm DMSO stock solutions. After drying, the leaf discs were infested with an aphid population of mixed ages. The samples were assessed for mortality 6 days after infestation.

[6] = tested on: Myzus persicae (Green Peach Aphid); assay: Example B8: Myzus persicae intrinsic activity, sucrose solution under Parafilm, 24-well; conditions: 120 h, test rate of 12 ppm, 5 days after infestation
From the text: Example B8: Myzus persicae (Green Peach Aphid): Intrinsic Activity
Test compounds prepared from 10′000 ppm DMSO stock solutions were applied by pipette into 24-well microtiter plates and mixed with sucrose solution. The plates were closed with a stretched Parafilm. A plastic stencil with 24 holes was placed onto the plate and infested pea seedlings were placed directly on the Parafilm. The infested plate was closed with a gel blotting paper and another plastic stencil and then turned upside down. The samples were assessed for mortality 5 days after infestation.

[7] = tested on: Myzus persicae (Green Peach Aphid); assay: Example B13: Myzus persicae, sucrose solution under Parafilm, 96-well; conditions: 120 h, application rate of 50 ppm, 5 days after infestation
From the text: Example B13: Myzus persicae (Green Peach Aphid)
Test compounds prepared from 10′000 ppm DMSO stock solutions were applied by a liquid handling robot into 96-well microtiter plates and mixed with a sucrose solution. Parafilm was stretched over the 96-well microtiter plate and a plastic stencil with 96 holes was placed onto the plate. Aphids were sieved into the wells directly onto the Parafilm. The infested plates were closed with a gel blotting card and a second plastic stencil and then turned upside down. The samples were assessed for mortality 5 days after infestation.

[8] = tested on: Diabrotica balteata (Corn Root Worm); assay: Example B1: Diabrotica balteata, maize sprouts sprayed, L2 larvae; conditions: 96 h, application rate of 200 ppm, 4 days after infestation, in comparison to untreated samples, read-out: effect in at least one of the two categories (mortality or growth inhibition)
Procedure: Example B1: Diabrotica balteata (Corn Root Worm)
Maize sprouts placed onto an agar layer in 24-well microtiter plates were treated with aqueous test solutions prepared from 10′000 ppm DMSO stock solutions by spraying. After drying, the plates were infested with L2 larvae (6 to 10 per well). The samples were assessed for mortality and growth inhibition in comparison to untreated samples 4 days after infestation.
The following compounds gave an effect of at least 80% in at least one of the two categories (mortality or growth inhibition) at an application rate of 200 ppm: • P2, P3, P4, P5, P6, P7, P8, P14, P15, P16, P17, P18, P19, P20, P21, P22, P23, P24, P25, P27, P28, P29, P30, P31, P32, P33, P34, P35

[9] = tested on: Spodoptera littoralis (Egyptian Cotton Leaf Worm); assay: Example B9: Spodoptera littoralis, cotton leaf discs sprayed, L1 larvae; conditions: foliar, 72 h, application rate of 200 ppm, five L1 larvae, 3 days after infestation, in comparison to untreated samples, read-out: control in at least one of the categories (mortality, anti-feedant effect, or growth inhibition)
Procedure: Example B9: Spodoptera littoralis (Egyptian Cotton Leaf Worm)
Cotton leaf discs were placed onto agar in 24-well microtiter plates and sprayed with aqueous test solutions prepared from 10′000 ppm DMSO stock solutions. After drying the leaf discs were infested with five L1 larvae. The samples were assessed for mortality, anti-feeding effect, and growth inhibition in comparison to untreated samples 3 days after infestation. Control of Spodoptera littoralis by a test sample is given when at least one of the categories mortality, anti-feedant effect, and growth inhibition is higher than the untreated sample.

[10] = tested on: Plutella xylostella (Diamondback Moth); assay: Example B14: Plutella xylostella, artificial diet in 96-well plates, eggs; conditions: 216 h, application rate of 500 ppm, 9 days after infestation
Procedure: Example B14: Plutella xylostella (Diamondback Moth)
96-well microtiter plates containing artificial diet were treated with aqueous test solutions, prepared from 10′000 ppm DMSO stock solutions, by a liquid handling robot. After drying, eggs (˜30 per well) were infested onto a netted lid which was suspended above the diet. The eggs hatch and L1 larvae move down to the diet. The samples were assessed for mortality 9 days after infestation.
The following compounds gave an effect of at least 80% average mortality at an application rate of 500 ppm: • P2, P3, P5, P6, P7, P9, P15, P16, P17, P18, P20, P22, P24, P25, P30, P31, P32, P33, P38.

CC(NC(=O)c1cc(C(F)(F)F)cc(C(F)(F)F)c1)c1nc(-c2ncno2)nn1-c1ncccn1 (centres unmarked) [Compound P1, N-[1-[5-(1,2,4-oxadiazol-5-yl)-2-pyrimidin-2-yl-1,2,4-triazol-3-yl]ethyl]-3,5-bis(trifluoromethyl)benzamide]
≥ 80%: percent effect (mortality or growth inhibition) at 200 ppm [1] | mortality at 200 ppm [2] | percent control (mortality, anti-feedant effect or growth inhibition) at 200 ppm [3] | percent effect (mortality or growth inhibition) at 200 ppm [4]

CC(c1nc(C(=O)N(C)C)nn1-c1ncccn1)N(C)C(=O)c1cc(C(F)(F)F)cc(C(F)(F)F)c1 (centres unmarked) [Compound P11, 5-[1-[[3,5-bis(trifluoromethyl)benzoyl]-methyl-amino]ethyl]-N,N-dimethyl-1-pyrimidin-2-yl-1,2,4-triazole-3-carboxamide]
≥ 80%: percent effect (mortality or growth inhibition) at 200 ppm [1] | percent control (mortality, anti-feedant effect or growth inhibition) at 200 ppm [3] | mortality at 200 ppm [5] | mortality at 12 ppm [6] | mortality at 50 ppm [7]

CC(NC(=O)c1cc(C(F)(F)F)cc(C(F)(F)F)c1)c1nc(OC(F)(F)F)nn1-c1ccccn1 (centres unmarked) [Compound P25, N-[1-[2-(2-pyridyl)-5-(trifluoromethoxy)-1,2,4-triazol-3-yl]ethyl]-3,5-bis(trifluoromethyl) benzamide]
≥ 80%: percent effect (mortality or growth inhibition) at 200 ppm [8] | percent effect (mortality or growth inhibition) at 200 ppm [1] | percent control (mortality, anti-feedant effect or growth inhibition) at 200 ppm [3] | percent effect (mortality or growth inhibition) at 200 ppm [4] | percent control (mortality, anti-feedant effect or growth inhibition) at 200 ppm [9] | mortality at 500 ppm [10]

CC(NC(=O)c1cc(C(F)(F)F)cc(C(F)(F)F)c1)c1nc(OC(F)F)nn1-c1ncccn1 (centres unmarked) [Compound P28, N-[1-[5-(difluoromethoxy)-2-pyrimidin-2-yl-1,2,4-triazol-3-yl]ethyl]-3,5-bis(trifluoromethyl)benzamide]
≥ 80%: percent effect (mortality or growth inhibition) at 200 ppm [8] | mortality at 200 ppm [2] | percent control (mortality, anti-feedant effect or growth inhibition) at 200 ppm [3] | percent effect (mortality or growth inhibition) at 200 ppm [4] | mortality at 12 ppm [6] | percent control (mortality, anti-feedant effect or growth inhibition) at 200 ppm [9]

CC(NC(=O)c1cc(C(F)(F)F)cc(C(F)(F)F)c1)c1nc(OCC(F)F)nn1-c1ncccn1 (centres unmarked) [Compound P29, N-[1-[5-(2,2-difluoroethoxy)-2-pyrimidin-2-yl-1,2,4-triazol-3-yl]ethyl]-3,5-bis(trifluoromethyl) benzamide]
≥ 80%: percent effect (mortality or growth inhibition) at 200 ppm [8] | percent effect (mortality or growth inhibition) at 200 ppm [1] | percent control (mortality, anti-feedant effect or growth inhibition) at 200 ppm [3] | percent effect (mortality or growth inhibition) at 200 ppm [4] | percent control (mortality, anti-feedant effect or growth inhibition) at 200 ppm [9]

CC(NC(=O)c1cc(C(F)(F)F)cc(C(F)(F)F)c1)c1nc(-c2nnco2)nn1-c1ncccn1 (centres unmarked) [Compound P30, N-[1-[5-(1,3,4-oxadiazol-2-yl)-2-pyrimidin-2-yl-1,2,4-triazol-3-yl]ethyl]-3,5-bis(trifluoromethyl)benzamide]
≥ 80%: percent effect (mortality or growth inhibition) at 200 ppm [8] | percent control (mortality, anti-feedant effect or growth inhibition) at 200 ppm [3] | percent effect (mortality or growth inhibition) at 200 ppm [4] | mortality at 12 ppm [6] | percent control (mortality, anti-feedant effect or growth inhibition) at 200 ppm [9] | mortality at 50 ppm [7] | mortality at 500 ppm [10]

CC(NC(=O)c1cc(Cl)cc(C(F)(F)F)c1)c1nc(Br)nn1-c1ncccn1 (centres unmarked) [Compound P33, N-[1-(5-bromo-2-pyrimidin-2-yl-1,2,4-triazol-3-yl)ethyl]-3-chloro-5-(trifluoromethyl) benzamide]
≥ 80%: percent effect (mortality or growth inhibition) at 200 ppm [8] | percent effect (mortality or growth inhibition) at 200 ppm [1] | percent control (mortality, anti-feedant effect or growth inhibition) at 200 ppm [3] | percent effect (mortality or growth inhibition) at 200 ppm [4] | percent control (mortality, anti-feedant effect or growth inhibition) at 200 ppm [9] | mortality at 50 ppm [7] | mortality at 500 ppm [10]

CC(NC(=O)c1cc(C(F)(F)F)cc(C(F)(F)F)c1)c1nc(C=O)nn1-c1ncccn1 (centres unmarked) [Compound P38, N-[1-(5-formyl-2-pyrimidin-2-yl-1,2,4-triazol-3-yl)ethyl]-3,5-bis(trifluoromethyl) benzamide]
≥ 80%: percent effect (mortality or growth inhibition) at 200 ppm [1] | mortality at 12 ppm [6] | mortality at 50 ppm [7] | mortality at 500 ppm [10]
